Measured values taken from patent US20100130604A1, “USE OF ROSMARINIC ACID IN MANUFACTURE OF MEDICAMENTS FOR TREATING OR PREVENTING HEPATIC AND RENAL DISEASES” (SHANGDONG LUYE NATURAL DRUG RESEARCH AND DEVELOPMENT CO., …, priority 2006, published 2010).
Where two headings read alike, the source gives them in different places.

System: HSC-T6 cells
Assay: Inhibitory effect of RA on HSC-T6 cell growth (MTT)
Assay type: cell-based
Details: for inhibition at 0.1 µg/mL / inhibition at 1 µg/mL / inhibition at 10 µg/mL / inhibition at 50 µg/mL / inhibition at 100 µg/mL: HSC-T6, read-out: Inhibition rate (%); for inhibition at 0.1 µg/mL: 0.1 mg/L; for inhibition at 1 µg/mL: 1 mg/L; for inhibition at 10 µg/mL: 10 mg/L; for inhibition at 50 µg/mL: 50 mg/L; for inhibition at 100 µg/mL: 100 mg/L
Text: Cells and experimental groups: HSC cell line was HSC-T6 (Shanghai Biosis Biotechnology Co. Ltd.), with the phenotype of active HSC. The cells were divided into groups for 0, 2.5, 5, 10, 20, and 40 μmol·L^−1 of RA. MTT method (Ye T and Liu X C, Effect of Pentoxifilline on Proliferation of Mesangial Cell Cultured in glucose-rich Medium and on CTGF Expression, Chinese Pharmacological Bulletin, 2004, 20(8): 883-885) was used to determine the effective RA concentration. Effects of RA on HSC-T6 proliferation and CTGF expression were examined.
A 1000 mg/L stock solution of RA in DMEM medium was prepared, and filtered through 0.22 μm microfilter to remove bacteria. The stock was then aliquoted in appropriate containers and stored at −20° C. in dark. It is good for use within 2 weeks. DMEM supplemented with 2% fetal bovine serum (FBS) was used to dilute the stock to desired concentrations before use.
HSC-T6 cells were cultured in DMEM supplemented with 100 U·mL^−1 penicillin, 100 U·mL^−1 streptomycin, and 10% FBS at 37° C., 5% CO2, and saturated humidity. Medium was changed every other day. The culture was digested with 0.002% EDTA and 0.25% trypsin at 80-90% confluence. And the cells were passaged at 1:4.
HSC-T6 cells at logarithmic phase after thawed were digested with trypsin and seeded to 96-well plate in DMEM supplemented with 5% FBS at the density of 1×10^4. After 24 hours culture, different concentrations of RA were added according to table 1. Each concentration of RA was added to 6 wells. Blank wells were designed to serve as control. […] The supernatant was discarded after 4 hours of incubation, and […] of dimethyl sufoxide (DMSO) was added to each well to obtain cell lysate, which was then shaken well before detected for OD value on ELISA reader (492 nm). Cell growth inhibition rates were calculated.

Which results are given for `O=C(/C=C/c1ccc(O)c(O)c1)O[C@H](Cc1ccc(O)c(O)c1)C(=O)O` [RA, R(+)2-{[3-(3,4-dihydroxylphenyl-(oxo-2-propenyl)oxy]3,4-dihydroxylphenylpropionic acid]}]?
inhibition at 0.1 µg/mL (12 h): 9.8 ± 2.3%; inhibition at 0.1 µg/mL (24 h): 12.1 ± 2.2%; inhibition at 0.1 µg/mL (48 h): 14.4 ± 2.3%; inhibition at 1 µg/mL (12 h): 20.7 ± 2%; inhibition at 1 µg/mL (24 h): 23 ± 2%; inhibition at 1 µg/mL (48 h): 25.3 ± 2.1%; inhibition at 10 µg/mL (12 h): 37.2 ± 2.6%; inhibition at 10 µg/mL (24 h): 38.6 ± 1.9%; inhibition at 10 µg/mL (48 h): 38.9 ± 3.2%; inhibition at 50 µg/mL (12 h): 52.3 ± 4.7%; inhibition at 50 µg/mL (24 h): 54.6 ± 4.6%; inhibition at 50 µg/mL (48 h): 55.2 ± 3.5%; inhibition at 100 µg/mL (12 h): 57.2 ± 2.3%; inhibition at 100 µg/mL (24 h): 59.6 ± 2.1%; inhibition at 100 µg/mL (48 h): 61.8 ± 2.2%; HSC-T6 proliferation compared to the control group (different concentrations of RA): significantly inhibited HSC-T6 proliferation
